# From patent US8440637B2, “Combination treatment for the treatment of hepatitis C virus infection” (priority 2007, dated 2013)
# Strand notation (5' to 3'): a small letter for the sugar, then the base; units joined by * are phosphorothioate-linked, units joined directly phosphodiester-linked; [ ] holds rarer units or linkages, { } end groups; capitals alone tell only the bases. l = locked nucleic acid (LNA); [5mC] = 5-methylcytosine; d = 2'-deoxy (DNA)
# Experiments:
# miR-122a [1] = assay: Melting temperature (Tm) of LNA anti-miR/miR-122a RNA duplex; format: physicochemical, human; conditions: Table 2; towards synthetic miR-122a RNA oligonucleotide with phosphorothioate linkages; PS backbone
# Description: The melting temperatures were assessed towards the mature miR-122a sequence, using a synthetic miR-122a RNA oligonucleotide with phosphorothioate linkaged.
# The LNA anti-miR/miR-122a oligo duplex was diluted to 3 μM in 500 μl RNase free H2O, which was then mixed with 500 μl 2× dimerization buffer (final oligo/duplex conc. 1.5 μM, 2× Tm buffer: 200 mM NaCl, 0.2 mM EDTA, 20 mM NaP, pH 7.0, DEPC treated to remove RNases). The mix was first heated to 95 degrees for 3 minutes, then allowed to cool at room temperature (RT) for 30 minutes.
# Following RT incubation Tm was measured on Lambda 40 UV/VIS Spectrophotometer with peltier temperature progammer PTP6 using PE Templab software (Perkin Elmer). The temperature was ramped up from 20° C. to 95° C. and then down again to 20° C., continuously recording absorption at 260 nm. First derivative and local maximums of both the melting and annealing was used to assess melting/annealing point (Tm), both should give similar/same Tm values. For the first derivative 91 points was used to calculate the slope.
# miR-122a [2] = assay: miR-122a level in transfected Huh-7 cells by miR-122a specific qRT-PCR; format: cell-based, human; conditions: transfected at 1 and 100 nM, 24 hours after transfection
# Description: The miR-122a expressing cell line Huh-7 was transfected with LNA anti-miR5 at 1 and 100 nM concentrations according to optimized lipofectamine 2000 (LF2000, Invitrogen) protocol (as follows).
# Huh-7 cells were cultivated in Eagles MEM with 10% FBS, 2 mM Glutamax I, 1× non-essential amino acids, Gentamicin 25 μg/ml. The cells were seeded in 6-well plates (300000 cells per well), in a total vol. of 2.5 ml the day before transfection. At the day of transfection a solution containing LF2000 diluted in Optimem (Invitrogen) was prepared (1.2 ml optimem+3.75 μl LF2000 per well, final 2.5 μg LF2000/ml, final tot vol 1.5 ml).
# LNA Oligonucleotides (LNA anti-miRs) were also diluted in optimem. 285 μl optimem+15 μl LNA oligonucleotide (10 μM oligonucleotide stock for final concentration 100 nM and 0.1 μM for final concentration 1 nM) Cells were washed once in optimem then the 1.2 ml optimem/LF2000 mix were added to each well. Cells were incubated 7 min at room temperature in the LF2000 mix where after the 300 μl oligonucleotide optimem solution was added. […]
# miR-122a levels in the RNA samples were assessed on an ABI 7500 Fast real-time PCR instrument (Applied Biosystems, USA) using a miR-122a specific qRT-PCR kit, mirVana (Ambion, USA) and miR-122a primers (Ambion, USA). […]
# miR-122 = assay: Total plasma cholesterol in hypercholesterolemic and normal mice, long-term treatment; format: in vivo, mouse; conditions: hypercholesterolemic and normal mice; 5 mg/kg i.p. twice weekly
# Description: (§1) C57BL/6J female mice were fed on high fat diet for 13 weeks before the initiation of the SEQ ID NO: 63 treatment. […] Both hypercholesterolemic and normal mice were treated i.p. twice weekly with 5 mg/kg SEQ ID NO: 63 and the corresponding mismatch control for a study period of 5½ weeks. Blood samples were collected weekly and total plasma cholesterol was measured during the entire course of the study. Upon sacrificing the mice, liver and blood samples were prepared for total RNA extraction, miRNA and mRNA quantification, assessment of the serum transaminase levels, and liver histology.
# C57BL/6J female mice (Taconic M&B Laboratory Animals, Ejby, Denmark) were used. All substances were formulated in physiological saline (0.9% NaCl) to final concentration allowing the mice to receive an intraperitoneal injection volume of 10 ml/kg.
# In the diet induced obesity study, the mice received a high fat (60EN %) diet (D12492, Research Diets) for 13 weeks to increase their blood cholesterol level before the dosing started. The dose regimen was stretched out to 5½ weeks of 5 mg/kg LNA-antimiR™ twice weekly. Blood plasma was collected once a week during the entire dosing period. After completion of the experiment the mice were sacrificed and RNA extracted from the livers for further analysis. Serum was also collected for analysis of liver enzymes.
# Immediately before sacrifice retro-orbital sinus blood was collected in EDTA-coated tubes followed by isolation of the plasma fraction. Total plasma cholesterol was analysed using ABX Pentra Cholesterol CP (Horiba Group, Horiba ABX Diagnostics) according to the manufacturer's instructions.
# miR-122a [3] = assay: miR-122a levels in mouse liver by microRNA specific qPCR; format: in vivo; conditions: hypercholesterolemic and normal mice; 5 mg/kg i.p. twice weekly for 5½ weeks
# Description: Total RNA was extracted from liver samples as described above and analysed for miR-122a levels by microRNA specific QPCR.
# In vivo study: Ten groups of animals (female C57/BL6; 3 mice per group) were treated in the following manner. Group 1 animals were injected with 0.2 ml saline by i.p. on day 0, day 2 and day 4. Groups 2-10 were dosed by i.p. with three different conc. (25 mg/kg, 5 mg/kg and 1 mg/kg) of either LNA antimiR-122a/SEQ ID NO: 61 (group 2-4), LNA antimir-122a/SEQ ID NO: 66 (group 5-7) or LNA antimir-122a/SEQ ID NO: 63 (group 8-10); the LNA antimir-122a sequences are given in the Table 1. All three LNA antimiR-122a oligonucleotides target the liver-specific miR-122a. The doses were calculated from the Day 0 body weights of each animal.
# The animals were sacrificed 48 hours after last dose (Day 6), retro-orbital blood was collected in tubes containing EDTA and the plasma fraction harvested and stored frozen −80° C. for cholesterol analysis. At sacrifice livers were dissected and one portion was cut into 5 mm cubes and immersed in 5 volumes of ice-cold RNAlater. A second portion was snap frozen in liquid nitrogen and stored for cryo-sectioning.
# Total RNA was extracted from liver samples using Trizol reagent according to the manufacturer's recommendations (Invitrogen, USA) and analysed for miR-122a levels by microRNA-specific QPCR according to the manufacturer's recommendations (Ambion, USA). […]
# NMRI female mice were treated with indicated doses of LNA-antimiR (SEQ ID NO: 61) along with a mismatch control (m, SEQ ID NO: 65), saline and antagomir (SPC3595) for three consecutive days and sacrificed 24 hours after last dose (as in example 11 “old design”, n=5). miR-122 levels were analyzed by qPCR and normalized to the saline treated group.
# as §1
# The miR-122 and let-7a microRNA levels were quantified with TaqMan microRNA Assay (Applied Biosystems) following the manufacturer's instructions. The RT reaction was diluted ten times in water and subsequently used for real time PCR amplification according to the manufacturer's instructions. A two-fold cDNA dilution series from liver total RNA of a saline-treated animal or mock transfected cells cDNA reaction (using 2.5 times more total RNA than in samples) served as standard to ensure a linear range (Ct versus relative copy number) of the amplification. Applied Biosystems 7500 or 7900 real-time PCR instrument was used for amplification.
# [4] = system: miR-122a target genes (Bckdk, aldolase A, Nrdg3, CD320, Vldlr); assay: miR-122a target mRNA levels in mouse liver by qPCR; format: in vivo; conditions: 5 mg/kg i.p. twice weekly for 5½ weeks
Substance,Tm (° C.) (miR-122a [1]),inhibition of miR-122a (in words) (miR-122a [2]),effect on plasma cholesterol levels (in words) (miR-122),miR-122 levels in liver after long-term treatment (in words) (miR-122a [3]),de-repression of direct miR-122 target genes (AldoA and Bckdk) after long-term treatment (in words) [4]
"5′-CcAttCTgaCcCtAC-3′ (antisense l[5mC]*dC*lA*dT*dT*l[5mC]*lT*dG*dA*l[5mC]*dC*l[5mC]*dT*lA*l[5mC]) [SEQ ID NO: 64, reference compound]",32 °C,not found to inhibit miR-122a,,,
mismatch control: the corresponding mismatch control to SEQ ID NO: 63 in Example 31; probably SEQ ID NO: 64 (antisense l[5mC]*dC*lA*dT*dT*l[5mC]*lT*dG*dA*l[5mC]*dC*l[5mC]*dT*lA*l[5mC]) [reference compound],,,did not affect the plasma cholesterol levels,had an effect on miR-122 levels,did not result in any functional de-repression
